Reference: patent US20140230081A1, “POLYNUCLEOTIDE, POLYPEPTIDE, ANIMAL MODEL AND METHOD FOR THE DEVELOPMENT OF COMPLEMENT SYSTEM MODULATORS” (BAYER INTELLECTUAL PROPERTY GMBH, priority 2011, published 2014)
Values joined by “and” are separate entries in the source; they are usually repeats but may differ in a detail not shown here. Equal values may be shown once. Read-outs that look alike come from different tables or passages of the source. Each block holds one molecule with its values, some of them ahead of it.

Key:
complement activation [1] = details: cited from earlier work
[2] = tested on: porcine-to-human xenograft; details: perfused with human blood; cited from earlier work
complement activation [3] = details: cited from earlier work; remark: listed apart in the source
IL10 expression = assay: CLP model in hamster, IL10 expression in tissues (TaqMan RT-PCR); type: in vivo, Syrian Hamster; details: CLP+0.5 mg/kg, CLP+2.5 mg/kg and CLP+Alzet vs. CLP+vehicle, dose dependently
Description: (§1) Hamster tissues were pulverized by grinding with liquid nitrogen. Total RNA was extracted, DNase I digestion was performed to remove residual genomic DNA and the RNA were reverse transcribed using random hexamer primers. Quantitative TaqMan RT-PCR analysis was performed using the Applied Biosystems PRISM 7900 sequence detection system. The thermal protocol was set to 2 min at 50° C., followed by 10 min at 95° C. and by 40 cycles of 15 s at 95° C. and 1 min at 60° C. Results were normalized to L32 controls, and relative expression was calculated according to the following formula: relative expression=2̂(15−(CT(probe)−CT(L32))). The parameter CT is defined as the cycle number at which the amplification plot passes a fixed threshold above baseline.
(§2) Midline incision was made in the Linea Alba of the peritoneal cavity and the cecum was exposed. 50% of the cecum was tied off by placing a tight ligature around the cecum. For the CLP model two puncture wounds were made with an 18-gauge needle into the cecum and small amounts of cecal contents were expressed through the wounds, situs was flushed with 0.5 mL sterile saline. Finally, the cecum was replaced into the peritoneal cavity and the laparotomy site was closed. The sham group underwent abdominal surgery; the cecum was exposed and replaced without ligation or puncture of the cecum. Situs was flushed with 0.5 mL sterile saline and the laparotomy site was closed.
C5aR Antagonist was dissolved in DMSO and diluted with sterile saline solution. The final solution contained 5% DMSO. […]
(§3) Total RNA was isolated from hamster tissues with the Trizol-Reagent protocol according to the manufacturer's specifications (Invitrogen; USA). […] For relative quantitation of the mRNA distribution of IL10, IL6 and IL1b, total RNA from each sample was first reverse transcribed. […] For relative quantitation of the distribution of IL10, IL6 or IL1b mRNA the Applied Biosystems PRISM 7900 sequence detection system was used according to the manufacturer's specifications and protocols. PCR reactions were set up to quantitate IL 10, IL6 or IL1b and the housekeeping gene L32. […]

hamster C5aR1 [4] = assay: Receptor activation of hamster C5aR1, reduction by antagonist; type: cell-based; details: activated by human C5a ligand
C5aR [5] = details: gerbil neutrophils; cited from earlier work
IL1b expression = assay: CLP model in hamster, IL1b expression in tissues (TaqMan RT-PCR); type: in vivo, Syrian Hamster; details: CLP+0.5 mg/kg, CLP+2.5 mg/kg and CLP+Alzet vs. CLP+vehicle; dose dependently; FIG. 11
Description: as §1, with “baseline. […]” for “baseline.”
as §3

C5aR [6] = details: cynomolgus monkey neutrophils; cited from earlier work
white blood cell counts = assay: CLP model in hamster, hemogram (white blood cell counts of EDTA whole blood); type: in vivo, Syrian Hamster; details: CLP+0.5 mg/kg, CLP+2.5 mg/kg and CLP+Alzet compared to CLP+vehicle; FIG. 24
Description: Blood samples were obtained under light Isoflurane anesthesia from the cavernous sinus with a capillary at different time points/final exsanguination by cannulation of the carotid artery after 24 hr to allow measurements of differential blood counts. Blood samples for basal blood cell counts were collected from the cavernous sinus one week before study begin. Blood was collected into EDTA tubes and blood cell counts were performed on an automated cell counter.
as §2
C5aR Antagonist was dissolved in DMSO and diluted with sterile saline solution. The final solution contained 5% DMSO. […] The study medication was given s.c. 30 min before and 2 h after CLP surgery. […]

IL6 expression = assay: CLP model in hamster, IL6 expression in tissues (TaqMan RT-PCR); type: in vivo, Syrian Hamster; details: CLP+0.5 mg/kg, CLP+2.5 mg/kg and CLP+Alzet vs. CLP+vehicle, dose dependently
Description: as §1, with “baseline. […]” for “baseline.”
as §3

[7] = molecular target: hamster C5aR1 polypeptide (hamster); assay: cell-based or functional assay
Sequence of hamster C5aR1 polypeptide (hamster) (chain, as listed by the source limits assumed): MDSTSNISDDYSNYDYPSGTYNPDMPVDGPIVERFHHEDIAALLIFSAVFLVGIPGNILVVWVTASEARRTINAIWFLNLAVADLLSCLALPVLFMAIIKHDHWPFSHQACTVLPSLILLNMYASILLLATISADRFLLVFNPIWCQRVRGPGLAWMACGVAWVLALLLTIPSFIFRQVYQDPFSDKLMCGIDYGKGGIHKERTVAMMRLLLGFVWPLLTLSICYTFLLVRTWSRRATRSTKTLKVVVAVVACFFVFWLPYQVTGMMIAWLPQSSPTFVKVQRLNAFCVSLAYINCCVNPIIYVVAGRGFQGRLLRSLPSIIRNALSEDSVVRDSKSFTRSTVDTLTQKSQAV

[8] = tested on: classical complement pathway; details: cited from earlier work
hamster C5aR1 [9] = assay: C5aR1 signalling via Calcium release (luminescence) in CHOmtCly_hamster-C5aR1/Galpha16 cells; type: cell-based; details: peptide at 7 μM; three CHOmtCly_hamster-C5aR1/Galpha16 cell lines, respectively; measured for 60 seconds; listed as Bachem peptide 83462
Description: CHO K1 cell lines expressing mitochondrial Clytin (CHOmtCly) were co-transfected with the expression vector pcDNA3 harbouring the cDNA of hamster C5aR1 und pcDNA3-Galpha16 to allow the measurement of C5aR1 signalling via Calcium release (generated cells are named CHOmtCly_hamster-C5aR1/Galpha16). Control cells (CHOmtCly_pcDNA3) were generated by transfection of CHOmtCly cells with a corresponding amount of empty pcDNA3 vector only. In brief, 10^6 cells were transfected with 2 μg DNA by use of the Nucleofector (Amaxxa) program U-27. Transfected cells were seeded in 384-well MTP with a density of 250 cells per well. After 24 h incubation at 37° C. selection media containing a final concentration of 1 mg/ml G418 was added. After one week of selection plates were duplicated and tested for C5aR1 signalling. Cells were loaded with Coelenterazine for 3 h, than buffer or the C-terminal peptide of human C5a (Bachem H3462) was added at a final concentration of 7 μM. Luminescence (RLU) was measured for 60 seconds.
For activity measurement, three CHOmtCly_hamster-C5aR1/Galpha16 cell lines and three CHOmtCly cDNA3 cell lines were analyzed, respectively.
Target sequence in this assay (as listed by the source): as the sequence (chain, as listed by the source limits assumed) above
Target sequence in this assay (P30679 whole entry partner): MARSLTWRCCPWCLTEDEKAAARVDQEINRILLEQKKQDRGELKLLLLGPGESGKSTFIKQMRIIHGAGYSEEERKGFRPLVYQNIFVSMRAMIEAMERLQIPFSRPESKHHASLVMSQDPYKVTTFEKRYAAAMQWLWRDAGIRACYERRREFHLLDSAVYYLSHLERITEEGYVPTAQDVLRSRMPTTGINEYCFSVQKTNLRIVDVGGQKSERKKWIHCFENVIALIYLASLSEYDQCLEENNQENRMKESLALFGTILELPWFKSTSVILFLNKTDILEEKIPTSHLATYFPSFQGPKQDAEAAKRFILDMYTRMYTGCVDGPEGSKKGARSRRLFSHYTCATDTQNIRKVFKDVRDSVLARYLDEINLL

[10] = tested on: complement-mediated tissue injury; details: models of ischemia-reperfusion and animal models of human acute and chronic inflammatory diseases; cited from earlier work
[11] = in vivo; cited from earlier work

Molecule: CC[C@H](C)[C@H](N)C(=O)N[C@H]1CSSC[C@@H](C(=O)N[C@H](C(N)=O)[C@@H](C)O)NC(=O)[C@H](CCCN=C(N)N)NC(=O)[C@H](Cc2cnc[nH]2)NC(=O)[C@H](Cc2cnc[nH]2)NC(=O)CNC(=O)[C@H](Cc2c[nH]c3ccccc23)NC(=O)[C@H](CC(=O)O)NC(=O)[C@H](CCC(N)=O)NC(=O)[C@H](C(C)C)NC(=O)[C@H](C(C)C)NC1=O [Compstatin]
- side effects (complement activation [1]; in vivo): without significant side effects
- heparine and protamine-induced complement activation (complement activation [1]; primates): inhibit
- lifetime of a porcine-to-human xenograft [2]: prolongs
- complement activation in human serum (complement activation [3]): inhibit

- receptor activation of hamster C5aR1 (hamster C5aR1 [4]): can be reduced
Molecule: COc1ccc2c(c1)C(C(=O)N(Cc1ccc(N(C)C)cc1)c1ccc(C(C)C)cc1)CCC2.Cl (stereo not drawn) [W-54011]
- expression of IL10 in kidney tissue (IL10 expression; FIG. 6): decreased
- expression of IL10 in LV (left ventricle) tissue (IL10 expression; FIG. 7): decreased
- expression of IL10 in lung tissue (IL10 expression; FIG. 8): decreased
- inhibition of C5a-mediated responses (C5aR [5]): inhibits
- expression of IL1b in LV (left ventricle) tissue (IL1b expression): decreased
- inhibition of C5a-mediated responses (C5aR [6]): inhibits
- WBC (white blood cell counts) (white blood cell counts): higher
- expression of IL6 in LV (left ventricle) tissue (IL6 expression; FIG. 9): decreased
- expression of IL6 in lung tissue (IL6 expression; FIG. 10): decreased

- Luminescence (RLU), calcium release via mitochondrial Clytin, peptide at 7 µM, measured for 60 seconds; cell line 1 of 3 [7]: 248000 RLU
- Luminescence (RLU), calcium release via mitochondrial Clytin, peptide at 7 µM, measured for 60 seconds; cell line 2 of 3 [7]: 243000 RLU
- Luminescence (RLU), calcium release via mitochondrial Clytin, peptide at 7 µM, measured for 60 seconds; cell line 3 of 3 [7]: 203000 RLU
Molecule: C-terminal peptide of human C5a (Bachem H3462) (from UniProt P01031 742-751)

Molecule: CEGPFGPRHDLTFCW [2J]
- IC50 [8]: 2 to 6 µM

Molecule: H3462: C-terminal peptide of human C5a (Bachem H3462) (ISHKDMQLGR)
- Luminescence (RLU) on stimulation (hamster C5aR1 [9]): 247943 RLU and 243143 RLU and 203151 RLU

Molecule: sCR1: soluble version of recombinant human CR1 lacking the transmembrane and cytoplasmic domains
- complement-mediated tissue injury [10]: reduce
- half-life in circulation [11]: short
